For 40 molecules, IC50 results are on record in patent US10124004B2, “Pyrido[3,4-d]pyrimidine derivative and pharmaceutically acceptable salt thereof” (Teijin Pharma Limited, priority 2015, dated 2018).

Structures are written as SMILES. pIC50: −log10 of the molar value. Like-named read-outs stand apart in the source and are kept apart here.

One assay addresses T1, CDK4/cyclin D3 (Homo sapiens, UniProt P11802).
T1 construct: purchased Carna Biosciences, Inc. QS S Assist CDK4/Cyclin D3_FP Kit
Kind of assay: Human CDK4/cyclin D3 inhibitory activity (QS S Assist CDK4/Cyclin D3_FP Kit, IMAP fluorescence polarization). The class given is biochemical. An outline of the steps:
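Percent inhibition, relative to DMSO with and without enzyme, was curve-fitted to give IC50 from polarization (ex 485, em 535 nm). The 45-min room-temperature reaction used 12.5-25 ng/well enzyme, kit ATP/substrate/metal mix, and HEPES pH 7.4 buffer with Tween20 and DTT, followed by 30-min IMAP binding in the dark.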
A general note: In fluorescence polarisation assays a small probe gives low polarisation when free and higher when bound to something large.

The next assay addresses T2, CDK2/cyclin A2 (Homo sapiens, UniProt P24941).
T2 construct: purchased Carna Biosciences, Inc. QS S Assist CDK2/Cyclin A2_FP Kit
Put plainly: Human CDK2/cyclin A2 inhibitory activity (QS S Assist CDK2/Cyclin A2_FP Kit, IMAP fluorescence polarization). The class given is biochemical. The method in brief: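 Kinase activity read as fluorescence polarization (485/535 nm) after phosphorylated fluorescent substrate binds IMAP reagent (30 min, RT, dark). Enzyme (2.5 ng/well) reacted 60 min at RT with ATP/substrate/metal in HEPES pH 7.4 buffer with Tween 20 and DTT; no-enzyme wells define 0% activity; IC50 by curve fit.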

Where [1] appears, read: Human CDK4/cyclin D3 inhibitory activity, read-out: CDK4 Activity symbol.
Setting [2] is: Human CDK2/cyclin A2 inhibitory activity, read-out: CDK2 Activity symbol.
Setting [3] is: 50% inhibitory concentration against CDK4/cyclin D3, given as class symbol.
Setting [4] is: 50% inhibitory concentration against CDK2/cyclin A2, given as class symbol.

T1 sequence (P11802 whole entry): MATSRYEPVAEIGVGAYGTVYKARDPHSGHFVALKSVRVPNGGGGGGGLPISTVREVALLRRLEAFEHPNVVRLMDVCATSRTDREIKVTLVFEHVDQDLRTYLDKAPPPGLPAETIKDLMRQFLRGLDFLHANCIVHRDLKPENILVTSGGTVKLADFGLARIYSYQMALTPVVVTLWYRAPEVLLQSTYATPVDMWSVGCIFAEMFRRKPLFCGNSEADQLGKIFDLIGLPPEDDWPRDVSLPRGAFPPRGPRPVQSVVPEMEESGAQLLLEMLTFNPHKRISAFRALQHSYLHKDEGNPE
T1 sequence (P30281 whole entry partner): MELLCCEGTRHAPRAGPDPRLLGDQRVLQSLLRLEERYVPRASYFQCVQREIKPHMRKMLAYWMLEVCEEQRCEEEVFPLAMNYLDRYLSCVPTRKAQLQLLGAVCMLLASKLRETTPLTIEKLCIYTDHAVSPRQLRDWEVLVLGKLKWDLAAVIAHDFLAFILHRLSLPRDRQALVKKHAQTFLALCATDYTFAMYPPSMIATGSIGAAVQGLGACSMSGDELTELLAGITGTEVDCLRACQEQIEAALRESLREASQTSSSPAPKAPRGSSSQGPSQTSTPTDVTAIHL

With `CC(C)Nc1nc([C@@H](C)O)cc2cnc(Nc3ccc(OCCN(C)C)cn3)nc12` [Compound 245], the results for the pIC50 on CDK4/cyclin D3 (setting [1]) and at CDK2/cyclin A2 (setting [2]) were above 8.00 and at most 7.00, respectively.

For the molecule `CCNc1nc([C@@H](C)O)cc2cnc(Nc3ccc(CN4CCN(C)CC4)cn3)nc12` [Compound 1103], the values for the pIC50 at CDK4/cyclin D3 (setting [3]) and against CDK2/cyclin A2 (setting [4]) were above 8.00 and at most 7.00, respectively.

With `CC(C)Nc1nc(C(F)F)cc2cnc(Nc3ccc(-c4ccncc4)cn3)nc12` [Compound 100], the pIC50 on CDK4/cyclin D3 (setting [1]) was 7.00 to 8.00; at CDK2/cyclin A2 (setting [2]), at most 7.00.

For the molecule `C[C@@H](O)c1cc2cnc(Nc3ccc(N4CCNCC4)cn3)nc2c(N[C@H]2CCOC2)n1` [Compound 994], the pIC50 is above 8.00 on CDK4/cyclin D3 (setting [3]) and at most 7.00 at CDK2/cyclin A2 (setting [4]).

`CC(C)Oc1nc(C(F)F)cc2cnc(Nc3ccc(N4CCNCC4)cn3)nc12` [Compound 7]: the pIC50 on CDK4/cyclin D3 (setting [1]) was above 8.00; at CDK2/cyclin A2 (setting [2]) it was at most 7.00.

As for `CC(C)Nc1nc(C2(C)COC2)cc2cnc(Nc3ccc4c(n3)CCNC4)nc12` [Compound 887], the pIC50 was above 8.00 at CDK4/cyclin D3 (setting [3]) and at most 7.00 on CDK2/cyclin A2 (setting [4]).

On to `CO[C@H](C)c1cc2cnc(Nc3ccc(N4CCN(C(=O)C5CCCO5)CC4)nn3)nc2c(NC(C)C)n1` (some centres unmarked) [Compound 1176], for which the pIC50 at CDK4/cyclin D3 (setting [3]) is above 8.00; against CDK2/cyclin A2 (setting [4]) it was at most 7.00.

As to `Cc1nc(Nc2ncc3cc([C@@H](C)O)nc(NC4CCC4)c3n2)ccc1N1CCNCC1` [Compound 1094], the pIC50 is above 8.00 on CDK4/cyclin D3 (setting [3]) and at most 7.00 against CDK2/cyclin A2 (setting [4]).

With `c1cc2c(nc1Nc1ncc3cc(C4CCOC4)nc(N[C@H]4CCCOC4)c3n1)CCNC2` (single isomer, unassigned) [Compound 942], the pIC50 at CDK4/cyclin D3 (setting [3]) was above 8.00; against CDK2/cyclin A2 (setting [4]), at most 7.00.

Turning to `Cc1ccc(Nc2ncc3cc(C(F)F)nc(NC(C)C)c3n2)nc1` [Compound 157], the values for the pIC50 at CDK4/cyclin D3 (setting [1]) and on CDK2/cyclin A2 (setting [2]) were 7.00 to 8.00 and at most 7.00, respectively.

As to `C[C@@H](O)c1cc2cnc(Nc3ccc(CN4CCNCC4)cn3)nc2c(NCC2CCOC2)n1` (some centres unmarked) [Compound 323], the pIC50 is above 8.00 at CDK4/cyclin D3 (setting [1]) and at most 7.00 at CDK2/cyclin A2 (setting [2]).

For the molecule `COC[C@H](C)Nc1nc([C@@H](C)O)c(Cl)c2cnc(Nc3ccc(N4CCC(O)CC4)nn3)nc12` [Compound 759], the pIC50 against CDK4/cyclin D3 (setting [3]) is 7.00 to 8.00; at CDK2/cyclin A2 (setting [4]), at most 7.00.

For `CC1(c2cc3cnc(Nc4ccc(CN5CCNCC5)cn4)nc3c(NCC3CC3)n2)COC1` [Compound 1109], the pIC50 at CDK4/cyclin D3 (setting [3]) is above 8.00; on CDK2/cyclin A2 (setting [4]), at most 7.00.

In the case of `CC(C)Nc1nc(C(F)F)cc2cnc(Nc3ccc(CCCN4CCCC4=O)cn3)nc12` [Compound 167], the figures for the pIC50 on CDK4/cyclin D3 (setting [1]) and at CDK2/cyclin A2 (setting [2]) were above 8.00 and at most 7.00, respectively.

In the case of `C[C@@H](O)c1cc2cnc(Nc3ccc(N4CCNCC4=O)cn3)nc2c(NCC2CCCOC2)n1` (some centres unmarked) [Compound 691], the pIC50 against CDK4/cyclin D3 (setting [3]) was above 8.00; at CDK2/cyclin A2 (setting [4]), at most 7.00.

For `CC(C)Nc1nc(C(F)F)cc2cnc(Nc3ccc(CNS(C)(=O)=O)cn3)nc12` [Compound 140], the values for the pIC50 at CDK4/cyclin D3 (setting [1]) and at CDK2/cyclin A2 (setting [2]) were above 8.00 and at most 7.00, respectively.

In the case of `CO[C@H](C)c1cc2cnc(Nc3ccc(CN4CC[C@@H](O)C4)cn3)nc2c(NC(C)C)n1` [Compound 270], the pIC50 at CDK4/cyclin D3 (setting [1]) was above 8.00; on CDK2/cyclin A2 (setting [2]) it was at most 7.00.

In the case of `C[C@@H](O)c1cc2cnc(Nc3ccc(N4CCNCC4)nn3)nc2c(N[C@H]2CCCOC2)n1` [Compound 253], the pIC50 on CDK4/cyclin D3 (setting [1]) was above 8.00; on CDK2/cyclin A2 (setting [2]) it was at most 7.00.

Regarding `C[C@@H](O)c1cc2cnc(Nc3ccc(CN4CCN(CCO)CC4)cn3)nc2c(NCC(C)(F)F)n1` [Compound 1215], the pIC50 against CDK4/cyclin D3 (setting [3]) was above 8.00; against CDK2/cyclin A2 (setting [4]), at most 7.00.

On to `CC(C)Nc1nc(C(F)F)cc2cnc(Nc3ccc(C4CCNC(=O)C4)cn3)nc12` (centres unmarked) [Compound 218], for which the pIC50 was above 8.00 on CDK4/cyclin D3 (setting [1]) and 7.00 to 8.00 at CDK2/cyclin A2 (setting [2]).

Regarding `CC(C)Nc1nc(C(F)F)cc2cnc(Nc3ccc(CN4CCOCC4=O)cn3)nc12` [Compound 166], the pIC50 on CDK4/cyclin D3 (setting [1]) was above 8.00; on CDK2/cyclin A2 (setting [2]), 7.00 to 8.00.

Regarding `Cc1c(C(F)F)nc(NC(C)C)c2nc(Nc3ccc(N4CCNCC4)cn3)ncc12` [Compound 60], the results for the pIC50 at CDK4/cyclin D3 (setting [1]) and at CDK2/cyclin A2 (setting [2]) were above 8.00 and at most 7.00, respectively.

`COC(C)c1cc2cnc(Nc3ccc(N4CC5CCC(C4)N5)cn3)nc2c(NC(C)C)n1` (centres unmarked) [Compound 501]: the pIC50 is above 8.00 on CDK4/cyclin D3 (setting [1]) and at most 7.00 on CDK2/cyclin A2 (setting [2]).

As to `CC(C)Nc1nc([C@@H](C)O)cc2cnc(Nc3ccc4c(n3)CCN(C(=O)CN(C)C)C4)nc12` [Compound 905], the pIC50 on CDK4/cyclin D3 (setting [3]) was above 8.00; at CDK2/cyclin A2 (setting [4]), at most 7.00.

Consider `CC(C)Nc1nc(C(F)F)cc2cnc(Nc3ccc(OCCN4CCCC4=O)cn3)nc12` [Compound 103], for which the values for the pIC50 on CDK4/cyclin D3 (setting [1]) and at CDK2/cyclin A2 (setting [2]) were above 8.00 and at most 7.00, respectively.

In the case of `C[C@@H](O)c1cc2cnc(Nc3ccc(CN4CCN(CCO)CC4)cn3)nc2c(NC2CC(F)C2)n1` (some centres unmarked) [Compound 1171], the results for the pIC50 on CDK4/cyclin D3 (setting [3]) and on CDK2/cyclin A2 (setting [4]) were above 8.00 and at most 7.00, respectively.

Take `CCCNc1nc([C@@H](C)O)cc2cnc(Nc3ccc(-c4cncn4C)cn3)nc12` [Compound 959]: the pIC50 against CDK4/cyclin D3 (setting [3]) was 7.00 to 8.00; against CDK2/cyclin A2 (setting [4]), at most 7.00.

For `C[C@@H](O)c1cc2cnc(Nc3ccc(N4CCNCC4)nn3)nc2c(N[C@H]2CCOC2)n1` [Compound 251], the pIC50 on CDK4/cyclin D3 (setting [1]) was above 8.00; on CDK2/cyclin A2 (setting [2]) it was at most 7.00.

Consider `CC(C)Nc1nc([C@@H](C)O)cc2cnc(Nc3ccc(N4CCN(C(C)C)CC4)nn3)nc12` [Compound 585], for which the pIC50 on CDK4/cyclin D3 (setting [1]) was above 8.00; on CDK2/cyclin A2 (setting [2]) it was at most 7.00.

As to `CC(C)CN1CCC(=O)N(c2ccc(Nc3ncc4cc([C@@H](C)O)nc(NC(C)C)c4n3)nc2)CC1` [Compound 632], the results for the pIC50 against CDK4/cyclin D3 (setting [3]) and at CDK2/cyclin A2 (setting [4]) were above 8.00 and at most 7.00, respectively.

Regarding `CC(O)c1cc2cnc(Nc3ccc(N4CCNCC4)cn3)nc2c(NC2CCCOC2)n1` (centres unmarked) [Compound 93], the values for the pIC50 on CDK4/cyclin D3 (setting [1]) and at CDK2/cyclin A2 (setting [2]) were above 8.00 and at most 7.00, respectively.

For the molecule `CC(C)Nc1nc(C2CC(F)(F)C2)cc2cnc(Nc3ccc(N4CCNCC4=O)cn3)nc12` [Compound 1042], the pIC50 at CDK4/cyclin D3 (setting [3]) is 7.00 to 8.00; at CDK2/cyclin A2 (setting [4]), at most 7.00.

`CC(C)Nc1nc([C@@H](C)O)cc2cnc(Nc3ccc(N4CCN(C(C)C)CCC4=O)cn3)nc12` [Compound 631]: the pIC50 at CDK4/cyclin D3 (setting [3]) is above 8.00; against CDK2/cyclin A2 (setting [4]), 7.00 to 8.00.

With `FC(F)c1cc2cnc(Nc3ccc(CN4CCNCC4)cn3)nc2c(N[C@H]2CCCOC2)n1` [Compound 380], the pIC50 at CDK4/cyclin D3 (setting [1]) was above 8.00; at CDK2/cyclin A2 (setting [2]), at most 7.00.

As to `CC(O)c1cc2cnc(Nc3ccc(N4CCNCC4)cn3)nc2c(Nc2ccccc2)n1` (centres unmarked) [Compound 26], the results for the pIC50 at CDK4/cyclin D3 (setting [1]) and on CDK2/cyclin A2 (setting [2]) were above 8.00 and at most 7.00, respectively.

Turning to `C[C@@H](O)c1cc2cnc(Nc3ccc(CN4CCC(CO)CC4)cn3)nc2c(NCC2CC2)n1` [Compound 1149], the pIC50 at CDK4/cyclin D3 (setting [3]) was above 8.00; at CDK2/cyclin A2 (setting [4]), at most 7.00.

Consider `O=C(CO)N1CCc2nc(Nc3ncc4cc(C5CCOC5)nc(N[C@H]5CC[C@H](O)CC5)c4n3)ccc2C1` (some centres unmarked) [Compound 1145], for which the pIC50 at CDK4/cyclin D3 (setting [3]) is above 8.00; against CDK2/cyclin A2 (setting [4]), at most 7.00.

For the molecule `CC(C)Nc1nc(C(F)F)cc2cnc(Nc3ccc(CN4CCN(CC(F)(F)F)CC4)cn3)nc12` [Compound 116], the pIC50 is 7.00 to 8.00 at CDK4/cyclin D3 (setting [1]) and at most 7.00 at CDK2/cyclin A2 (setting [2]).

Turning to `C[C@@H](O)c1cc2cnc(Nc3ccc(N4CCNCC4=O)cn3)nc2c(NCC2CC2)n1` [Compound 1043], the results for the pIC50 at CDK4/cyclin D3 (setting [3]) and against CDK2/cyclin A2 (setting [4]) were above 8.00 and at most 7.00, respectively.

With `C[C@@H](O)c1cc2cnc(Nc3ccc(N4CCNCC4=O)cn3)nc2c(NC2CCCC2)n1` [Compound 1078], the pIC50 on CDK4/cyclin D3 (setting [3]) is above 8.00; at CDK2/cyclin A2 (setting [4]), at most 7.00.
